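Following 48 hours of exposure in 96-well plates, responses at five concentrations were used to interpolate endpoints linearly. Abbreviation: GI50, concentration required for 50% inhibition of growth. Definition used: TGI = concentration required for complete inhibition of growth.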
How the values were obtained:
Assay in all cases: NCI anticancer screen, dose series, 48 h
[1] = system: OVCAR-4 ovarian
[2] = system: MDA-MB-231 breast
[3] = system: HT29 colon
[4] = system: HCT-15 colon
[5] = system: EKVX NSCLC
[6] = system: OVCAR-8 ovarian
[7] = system: UO-31 renal
[8] = system: RPMI-8226 leukemia
[9] = system: SK-OV-3 ovarian
[10] = system: MDA-MB-435

| SMILES | GI50 [1] [µM] | TGI [1] [µM] | GI50 [2] [µM] | TGI [2] [µM] | GI50 [3] [µM] | TGI [3] [µM] | GI50 [4] [µM] | TGI [4] [µM] | GI50 [5] [µM] | TGI [5] [µM] | GI50 [6] [µM] | TGI [6] [µM] | GI50 [7] [µM] | TGI [7] [µM] | GI50 [8] [µM] | TGI [8] [µM] | GI50 [9] [µM] | TGI [9] [µM] | GI50 [10] [µM] | TGI [10] [µM] |
| --- | --- | --- | --- | --- | --- | --- | --- | --- | --- | --- | --- | --- | --- | --- | --- | --- | --- | --- | --- | --- |
| Cc1cccc(Cl)c1NC(=O)c1cnc(Nc2cc(N3CCOCC3)cc(S(C)(=O)=O)c2)s1 | > 10 | > 10 | 0.141 | > 3.4 | 0.203 | 0.663 | 3 | > 10 | 1.24 | > 10 | 0.516 | > 10 | 0.199 | > 6.98 | > 10 | > 10 | 0.191 | > 8.3 | > 9.63 | > 10 |
| CC(C)Cc1ccc(C(C)C(=O)NCc2ccc(Cn3c(=O)sn(CCCI)c3=O)cc2)cc1 (stereo not drawn) | 0.736 | 2.12 | 1.13 | 2.42 | 0.238 | 0.75 | 0.237 | 0.738 | 1.46 | 2.92 | 0.523 | 1.85 | 0.407 | 1.49 | 0.34 | 2.2 | 2.88 | 8.23 | 0.485 | 1.77 |
| NC(=O)c1cc(Br)ccc1NC(=O)/C=C/c1ccccc1 | 8.85 | > 100 | 2.87 | > 41.4 | 0.914 | > 100 | 1.38 | > 100 | 3.27 | > 100 | 14.1 | > 100 | 3.37 | > 100 | 3.29 | > 100 | 3.68 | > 23.6 | 0.421 | 3.09 |
| Cc1ccc(OCCOCCOCCOCCOCCOc2ccc(C)n(O)c2=S)c(=S)n1O | 0.0339 | 49.5 | 0.062 | > 100 | 0.0585 | > 100 | 0.0392 | > 100 | 0.0392 | > 100 | 0.0384 | > 100 | 0.0377 | 2.02 | 0.0713 | > 100 | 0.0583 | > 48 | 0.186 | 52.6 |
| COc1ccc2c(c1)C(c1cc(OC)c3c(c1)OCO3)C1=C(COC1=O)N2 (stereo not drawn) | 1.28 | > 100 | 0.654 | > 39.8 | 0.325 | – | 0.472 | > 65.1 | 3.44 | > 100 | 0.504 | > 40.7 | 5.05 | > 100 | 0.461 | > 100 | 0.305 | 7.36 | 0.049 | 0.287 |
| CCNCCNc1cc(-c2ccc(C(F)(F)F)cc2)c(C#N)c2nc3cc(Cl)c(Cl)cc3n12 | 1.41 | 3.14 | 1.51 | 3.1 | 1.64 | 3.08 | 0.289 | 0.935 | 1.59 | 3.13 | 1.74 | 3.41 | 1.65 | 3.25 | 1.71 | 3.85 | 2.01 | 3.45 | 1.65 | 3.16 |
| Cc1ccccc1C(C(=O)NC1CCCCC1)N(C(=O)CNc1ccc(C#N)cc1)c1cccc(F)c1 (stereo not drawn) | 9.34 | > 71.6 | 12.4 | 70.7 | > 100 | > 100 | > 100 | > 100 | 42.5 | > 100 | 10.6 | > 100 | > 93.5 | > 100 | > 100 | > 100 | 12.9 | 52.8 | > 72.4 | > 100 |
| COc1cc(CCC(=O)NC[C@@H](O)c2ccccc2)ccc1O | > 100 | > 100 | > 100 | > 100 | > 100 | > 100 | > 100 | > 100 | > 100 | > 100 | > 100 | > 100 | > 100 | > 100 | > 100 | > 100 | > 100 | > 100 | > 100 | > 100 |
| Oc1ccccc1/C=N\NC(=S)N/N=C/c1ccccc1O | 0.64 | 46.7 | 3.05 | > 100 | 6.63 | 48.8 | 0.589 | > 100 | 2.57 | 24.3 | 2.34 | 51.1 | 0.489 | 4.91 | 2.77 | 34.2 | 4.28 | > 100 | 1.97 | 25.3 |
| CNC(=O)c1cccc(C#Cc2cncnc2Nc2ccc(OCc3cccc(F)c3)c(Cl)c2)c1 | 4.23 | 12.3 | 5.95 | > 19.5 | 8.64 | > 25 | 6.52 | > 25 | 1.22 | > 25 | 7.3 | > 25 | 1.58 | > 25 | 14 | > 25 | 3.19 | 12.7 | 7.02 | > 25 |
| COc1ccc(Cn2cc3c(c2-c2cc(OC)c(OC)c(OC)c2)CCc2c(CO)noc2-3)cc1 | 4.2 | 51.6 | 0.629 | 19 | 0.323 | 13 | 0.315 | 27.1 | 0.644 | > 76.9 | 0.417 | 19.6 | 0.639 | 22.4 | 0.41 | 13.6 | 0.428 | 31.1 | 0.0605 | 0.245 |
| O=C(O)Cc1ccc(N=Nc2c(O)c(C(=O)O)cc3ccccc23)cc1 | – | > 100 | – | > 100 | – | > 100 | – | > 100 | – | > 100 | – | > 100 | – | > 100 | – | > 100 | – | > 100 | – | > 100 |
| CCCCCCCCCCCCCCCCN(CC)CC | 3.31 | 11.1 | 1.75 | 3.21 | 2.13 | 4.59 | 1.88 | 3.66 | 2.02 | 4.76 | – | – | 1.6 | 3.47 | 2.23 | 4.75 | 3.1 | 9.8 | 1.95 | 3.86 |
| COc1cc2nc3cc([N+](=O)[O-])ccc3c(NCCNCC(C)O)c2cc1OC (stereo not drawn) | 0.886 | 2.92 | 0.604 | 3.08 | 0.317 | 1.28 | 3.27 | 13.1 | 1.62 | 5.34 | 0.587 | 3.13 | 1.67 | 5.84 | 1.55 | 5.52 | 1.98 | 5.35 | 0.572 | 1.98 |
| COC(=O)CNc1nc(N(C)O)nc(N(C)O)n1 | 2.85 | > 100 | 4.16 | > 100 | 6.5 | > 100 | 0.551 | > 100 | 3.31 | > 100 | 3.31 | > 100 | 3.02 | 50.5 | 1.49 | > 100 | 10.3 | > 100 | 10.5 | > 100 |
| CC1(C)CCC(C)(C)c2cc(NC(=O)c3ccc(C(=O)O)cc3)ccc21 | – | > 100 | – | > 90.5 | – | > 95 | – | > 64 | – | > 100 | – | > 100 | – | 39.5 | – | > 100 | – | > 100 | – | > 77.8 |
| C=CC(=O)Nc1cccc(Oc2nc(Nc3ccc(N4CCN(C)CC4)cc3OC)ncc2Cl)c1 | 2.36 | > 39.4 | 1.94 | 4.12 | 2.08 | 4.53 | 2.59 | 10.7 | 0.363 | 3.38 | 2.08 | 8.45 | 1.03 | 2.32 | 1.97 | 5.1 | 0.342 | 5.33 | 1.7 | 3.24 |
| C=C1C(=O)O[C@H]2[C@H]1CC/C(CNC(=O)/C=C/c1ccccc1F)=C\CC[C@@]1(C)O[C@@H]21 | 1.66 | 4.57 | 1.93 | 4.44 | 1.22 | 3.08 | 1.01 | 2.49 | 1.89 | 5.95 | 2.95 | 11.8 | 1.34 | 2.91 | 1.41 | 5.84 | 13.1 | 28.3 | 1.5 | 6.34 |
| CN(C)Cc1c(C(=O)NCCOc2ccc(C(=O)NO)cc2)oc2ccccc12 | 0.269 | > 71.3 | 0.392 | 18.2 | 0.205 | 1.36 | 1.9 | > 35.9 | 0.346 | > 100 | 0.0807 | 3.99 | 0.296 | 2.66 | 0.138 | 0.662 | 0.273 | 2.01 | 0.174 | 0.679 |
| CCC1(c2ccc(N)cc2)CCC(=O)NC1=O (stereo not drawn) | – | 4940 | – | > 5000 | – | > 3750 | – | > 5000 | – | > 5000 | – | > 5000 | – | > 3950 | – | > 5000 | – | 1950 | – | > 5000 |
| COc1ccc(NC(=O)c2ccc(NC3=C(Cl)C(=O)N(Cc4ccccc4)C3=O)cc2)c(OC)c1 | 61.8 | > 100 | > 100 | > 100 | 41.5 | > 100 | 20 | 46.3 | 64.9 | > 100 | 29.2 | > 100 | 40.5 | > 100 | 4.85 | 22.8 | > 100 | > 100 | 16.7 | 48.9 |
| CC(C)C(=O)c1c(C(F)(F)F)n([O-])c2ccccc2[n+]1=O | 4.47 | 18.8 | 1.58 | 3.58 | 9.43 | > 36.4 | 2.31 | > 27.1 | 0.876 | 2.57 | 2.14 | > 20.5 | 1.18 | 3.11 | 0.178 | 1.31 | 2.66 | > 100 | 1.07 | 3.45 |
| Nc1nn(C(=O)Nc2c(F)cccc2F)c2ccccc12 | 57.8 | > 100 | 98.7 | > 100 | 74.6 | > 100 | 40.9 | > 100 | 83.9 | > 100 | 44.2 | > 100 | 18.6 | > 100 | 16.1 | > 100 | > 100 | > 100 | 54.9 | > 100 |
| Cc1[nH]nc2ncc(C(=O)N3CCC[C@H]3c3ccc(Cl)cc3)cc12 | 96.6 | > 100 | > 100 | > 100 | > 100 | > 100 | 58.3 | > 100 | 79.8 | > 100 | > 100 | > 100 | 61.2 | > 100 | 63 | > 100 | > 100 | > 100 | 98.1 | > 100 |
| CCOC(=O)c1cc(NS(=O)(=O)c2ccc(C)cc2)cc(C(=O)OCC)c1 | 21.2 | 85.5 | 34.9 | > 100 | 82.7 | > 100 | 39.6 | > 100 | 31.7 | > 100 | – | – | 39.1 | > 100 | 27 | > 100 | 70.7 | > 100 | 33.6 | > 100 |
| Nc1ncn([C@H]2C[C@H](OP(=O)(O)OC[C@H]3O[C@@H](n4cnc5c(=O)[nH]c(N)nc54)C[C@@H]3O)[C@@H](CO)O2)c(=O)n1 | > 100 | > 100 | > 100 | > 100 | 47.1 | > 100 | – | – | > 100 | > 100 | 26.6 | > 100 | > 100 | > 100 | > 100 | > 100 | > 100 | > 100 | > 100 | > 100 |

Reference: PubChem BioAssay (NCI)
